Assay results published in paper PMC5537225, “Therapeutic efficacy of a respiratory syncytial virus fusion inhibitor” (Nature Communications, 2017).
pEC50, pKd: −log10 of the molar value. Like-named read-outs stand apart in the source and are kept apart here.

Experiments:
[1] = test system: rgRSV224; experiment: microbe, parasite or virus in culture; type: cell-based, respiratory syncytial virus
[2] = test system: DENV-2; experiment: microbe, parasite or virus in culture; type: cell-based; details: Dengue virus, read-out: EC50 DENV
[3] = in vitro; details: human
[4] = in vitro; details: African green monkey
[5] = test system: RSV M37 strain; experiment: In vivo efficacy in RSV-infected neonatal lambs
[6] = test system: RSV A and B strains; details: HeLa cells
Protocol: Briefly, black 384-well clear-bottom microtiter plates were filled in quadruplicate using a customized robot system with serial fourfold dilutions of compound in a final volume of 200 nl dimethylsulfoxide (DMSO). Then, 20 µl of a HeLa cell suspension (5 × 10^4 cells ml^−1) in culture medium was added to each well followed by the addition of 20 µl RSV (multiplicity of infection, MOI = 0.02) in culture medium, or 20 µl culture medium for cell controls, using a multidrop dispenser. […] In parallel, compounds were incubated for 3 days in a set of white 384-well microtiter plates and the cytotoxicity of compounds in HeLa cells (CC50) was determined by measuring the adenosine triphosphate (ATP) content of the cells using the ATPlite kit (PerkinElmer, Waltham, MA) according to the manufacturer’s instructions. The activity of the compound against non-recombinant RSV A and B strains was determined similarly by plaque assay[70].

[7] = test system: RSV-induced cellular influx in the lungs; experiment: Measurement of cellular influx into the lungs of RSV-infected BALB/c mice; type: in vivo
[8] = test system: HCV genotype 1b subgenomic replicon; experiment: microbe, parasite or virus in culture; type: cell-based; details: Hepatitis C virus; mean of at least 3 experiments
[9] = test system: CMV-AD169-eGFP virus; experiment: microbe, parasite or virus in culture; type: cell-based, cytomegalovirus; details: Human betaherpesvirus 5, AD169, HEL 299; mean of at least 3 experiments
[10] = molecular target: T1, prefusion D489Y mutant RSV F (DS-Cav1) (Human respiratory syncytial virus A, UniProt P03420, D489Y/I379V/M447V/S155C/S190F/S290C/V207L); type: binding; details: ITC; 1:1 fits could not be determined
T1 construct: purification tags incl; made in house; host or cells: FreeStyle 293 F cells, with kifunensine

[11] = molecular target: T2, prefusion L141W mutant RSV F (DS-Cav1) (Human respiratory syncytial virus A, UniProt P03420, I379V/L141W/M447V/S155C/S190F/S290C/V207L); type: binding; details: ITC; 1:1 fits could not be determined
T2 construct: purification tags incl; made in house; host or cells: FreeStyle 293 F cells, with kifunensine

[12] = test system: RSV A2; experiment: Viral titer in RSV-inoculated BALB/c mice; type: in vivo; details: single 40 mg kg−1 dose 1 h before infection
[13] = molecular target: T3, full-length wild-type RSV F protein (Human respiratory syncytial virus A, UniProt P03420); experiment: Membrane-bound F protein stability assay (heat-shock flow cytometry, HEK293T cells); type: cell-based; details: 55 °C for 10 min
T3 construct: The full-length wild-type RSV F protein was transiently expressed in HEK293T cells; expressed in transfected cells; host or cells: HEK293T
Protocol: The full-length wild-type RSV F protein was transiently expressed in HEK293T cells. Forty-eight hours post transfection, the cells were detached using an EDTA-containing buffer and the cell suspension with or without added compounds was heat-shocked for 10 min at 55 °C. The cells were stained with the CR9501 and CR9503 antibodies (1 µg ml^−1) directly labeled with AlexaFluor647 (Alexa Fluor® 647 Monoclonal Antibody Labeling Kit, Molecular Probes/Invitrogen). Propidium iodide (Molecular Probes/Invitrogen) was used as a live-dead stain. Flow Cytometry was performed on FACS Canto II instrument (BD Biosciences). The data were analyzed using FlowJo9.6.1 software. A single cell population was selected on the side and forward scatters dot-plot. Within this population, PI-negative cells were analyzed for staining with CR9501 and CR9503 antibodies. Mean fluorescence intensity was calculated and the values of the heat-shocked samples were normalized to untreated (37 °C) samples.

[14] = test system: L141W mutant RSV; type: cell-based, respiratory syncytial virus; details: A549 cells, time-lapse imaging 48 h
[15] = test system: post-fusion RSV F; type: binding; details: ITC
[16] = test system: HIV-1 IIIB virus; experiment: HIV-1 assay in MT4-LTR-Luc cells; type: cell-based; details: Human immunodeficiency virus 1, IIIB; mean of at least 3 experiments
Protocol: (§1) Briefly, white 384-well plates were filled in quadruplicate using a customized robot system with serial fourfold dilutions of compound in a final volume of 10 µl culture medium. Then, 15 µl of a MT4-LTR-Luc cell suspension (4 × 10^5 cells per ml) in culture medium was added to each well followed by the addition of 15 µl HIV IIIB virus (MOI = 0.0125) in culture medium using a multidrop dispenser. […] The CC50 value was calculated on the basis of the difference of luminescence between non-treated and compound-treated cells.

[17] = test system: D489Y mutant RSV; type: cell-based, respiratory syncytial virus; details: A549 cells, time-lapse imaging 48 h
[18] = test system: rgRSV224 D489Y mutant strain; type: cell-based, respiratory syncytial virus
[19] = in vitro; details: human; remark: listed apart in the source
Protocol: Briefly, 96-well plates were filled with 100 µl/well of HepG2.117 cells (2 × 10^4 cells per well) and incubated overnight at 37 °C in a humidified atmosphere containing 5% CO2.

[20] = test system: soluble prefusion ectodomain of F protein; details: DSF
[21] = test system: recombinant hMPV; experiment: microbe, parasite or virus in culture; type: cell-based; details: human metapneumovirus, Vero/TMPRSS2; mean of at least 3 experiments
[22] = in vivo; details: 10 mg/kg
[23] = dog
[24] = in vivo; details: male, Beagle, dog
[25] = test system: HRV 1b; experiment: HRV assay (CPE, HeLa RH cells), HRV 1b; details: Rhinovirus A, read-out: EC50 HRV 1b
Protocol: (§2) After 3 days of incubation at 33 °C, cytopathic effect (CPE) was quantified by measuring the ATP content in compound-treated and non-treated cells with ATPlite kit according to the manufacturer’s instructions. Cytotoxicity of the compound was determined in a parallel set of plates mock-infected with cell culture medium. After 3 days of incubation at 33 °C, ATP content in compound-treated and non-treated cells was quantified with ATPlite kit.

[26] = test system: HRV 16; experiment: HRV assay (CPE, HeLa RH cells), HRV 16; details: Rhinovirus A, read-out: EC50 HRV 16
Protocol: as §2

[27] = test system: Long strain RSV; experiment: In vivo efficacy in RSV-infected cotton rats; set-up: species or system Sigmodon hispidus cotton rats
[28] = test system: recombinant MV; experiment: MV assay in Vero/hSLAM cells; details: Measles morbillivirus, Vero, read-out: EC50 MV
[29] = in vitro; details: African green monkey; remark: listed apart in the source
Protocol: Briefly, black 384-well clear-bottom microtiter plates were filled in quadruplicate using a customized robot system with serial fourfold dilutions of compound in a final volume of 200 nl DMSO. Then, 20 µl of a Vero Bayer cell suspension (3.75 × 10^4 cells/ml) in culture medium was added to each well followed by the addition of 20 µl PIV-3-eGFP virus (MOI = 1) in culture medium, or 20 µl culture medium for cell controls, using a multidrop dispenser.

[30] = molecular target: T4, prefusion-stabilized RSV F protein (DS-Cav1) (Human respiratory syncytial virus A, UniProt P03420, I379V/M447V/S155C/S190F/S290C/V207L); experiment: biochemical; type: binding; details: ITC
T4 construct: purification tags incl; made in house; host or cells: FreeStyle 293 F cells, with kifunensine

[31] = test system: rgRSV224 in human bronchoepithelial cells (HBECs); experiment: Antiviral potency in air-liquid cultures of HBECs infected with rgRSV224
[32] = test system: CVB; experiment: CVB assay in Vero Bayer cells; type: cell-based, Coxsackie virus B4; details: Enterovirus B, mean of at least 3 experiments
[33] = test system: recombinant PIV-3 strain; experiment: microbe, parasite or virus in culture; type: cell-based, human parainfluenza virus 3; details: Human respirovirus 3, Vero; mean of at least 3 experiments
[34] = Cytotoxicity in non-infected MT4-LTR-Luc cells; type: cell-based; details: human, mean of at least 3 experiments, read-out: CC50 (HIV-1 row)
Protocol: as §1

[35] = in vitro; details: African green monkey; remark: listed apart in the source
[36] = test system: RSV-induced pro-inflammatory cytokines and chemokines; experiment: Cytokine and chemokine analysis in RSV-infected BALB/c mice; type: in vivo; details: single 40 mg kg−1 p.o. 1 h before infection, Day 6, mean ± s.e.m., n=6
[37] = test system: HeLa RH cells; details: human, 3 days
Protocol: as §2

[38] = test system: rgRSV224 L141W mutant strain; type: cell-based, respiratory syncytial virus; details: mutant selected with JNJ-53718678
[39] = molecular target: prefusion-stabilized RSV F protein (DS-Cav1) (respiratory syncytial virus strain A2); experiment: crystal structure
[40] = human respiratory syncytial virus, HeLa, mock-treated rgRSV224 during in vitro selection procedure, read-out: EC50 wild-type strain (untreated control)
[41] = 25 mg kg−1 daily starting 1 day after infection
[42] = RSV-infected, single 40 mg kg−1 p.o., BAL, mean ± s.e.m., n=6
[43] = HBECs, 100 nM, 6 or 24 h after onset of infection

T4 sequence (P03420 137-513, looked up, stated change not applied): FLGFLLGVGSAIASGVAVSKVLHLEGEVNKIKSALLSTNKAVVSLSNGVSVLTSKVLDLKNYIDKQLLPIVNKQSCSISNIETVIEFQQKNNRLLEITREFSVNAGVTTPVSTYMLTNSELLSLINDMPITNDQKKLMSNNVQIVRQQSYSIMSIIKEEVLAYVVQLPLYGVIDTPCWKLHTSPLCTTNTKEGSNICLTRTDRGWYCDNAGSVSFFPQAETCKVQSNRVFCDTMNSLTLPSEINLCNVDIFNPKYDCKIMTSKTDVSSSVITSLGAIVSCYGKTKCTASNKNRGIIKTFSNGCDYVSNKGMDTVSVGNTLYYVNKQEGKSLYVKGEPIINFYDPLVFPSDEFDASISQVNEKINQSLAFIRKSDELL
T4 sequence (P03420 26-109, stated change not applied): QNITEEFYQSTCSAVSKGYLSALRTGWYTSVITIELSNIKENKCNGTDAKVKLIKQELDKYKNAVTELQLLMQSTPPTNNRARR
T2 sequence (P03420 137-513, looked up, stated change not applied): as the sequence (P03420 137-513, looked up, stated change not applied) above
T2 sequence (P03420 26-109, stated change not applied): as the sequence (P03420 26-109, stated change not applied) above
T1 sequence (P03420 26-109, stated change not applied): as above
T1 sequence (P03420 137-513, looked up, stated change not applied): as the sequence (P03420 137-513, looked up, stated change not applied) above
T3 sequence (P03420 26-109): as the sequence (P03420 26-109, stated change not applied) above
T3 sequence (P03420 137-574): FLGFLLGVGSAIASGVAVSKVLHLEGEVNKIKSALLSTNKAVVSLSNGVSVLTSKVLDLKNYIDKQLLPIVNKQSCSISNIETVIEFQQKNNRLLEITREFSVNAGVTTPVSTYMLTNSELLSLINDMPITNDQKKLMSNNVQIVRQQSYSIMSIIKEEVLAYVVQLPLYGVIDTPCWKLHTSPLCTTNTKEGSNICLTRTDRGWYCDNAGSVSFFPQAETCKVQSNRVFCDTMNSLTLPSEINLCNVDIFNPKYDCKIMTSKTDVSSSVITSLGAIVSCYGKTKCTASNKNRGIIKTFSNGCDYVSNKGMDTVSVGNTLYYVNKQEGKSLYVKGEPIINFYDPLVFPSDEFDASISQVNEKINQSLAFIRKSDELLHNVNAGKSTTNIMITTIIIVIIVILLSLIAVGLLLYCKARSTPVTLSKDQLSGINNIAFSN

## CS(=O)(=O)CCCn1c(Cn2c(=O)n(CC(F)(F)F)c3ccncc32)cc2cc(Cl)ccc21 [JNJ-53718678]
[1]
  improvement of activity as compared to BMS-433771: > 10 fold
[1]; [40]
  pEC50: 8.80
[1]; human respiratory syncytial virus, HeLa, pEC50 = -Log10(EC50)(M), preliminary SAR, read-out: pEC50 (converted)
  EC50: 5.01e-10 M
[2]
  pEC50: 4.75
[3]
  CC50 at 5 days: > 100 µM
[4]
  CC50 at 3 days: > 25 µM
[5]; [41]
  reduction of the viral RNA titer in BALF and lavaged-lung tissue vs vehicle: > 95%
  reduction of the viral RNA titer in BALF vs vehicle: ~ 22 fold
  reduction of the viral RNA titer in lavaged-lung tissue vs vehicle: ~43 fold
[5]; 25 mg kg−1 initiated 1 day after infection
  microscopic lung lesions: lacked microscopic lesions
[5]; once daily starting 1 day after infection
  formation of gross RSV-associated lung lesions: complete inhibition
[5]; oral once daily 1, 5 or 25 mg kg−1 starting 1 day after infection, Day 6
  RSV infectious titer in BALF and lavaged-lung tissue: (almost) complete eradication
[6]
  activity against RSV strains from both A and B subtypes: highly active
[7]; BALB/c mice, single 40 mg kg−1 dose 1 h before infection
  reduction of influx of neutrophils: ~ 5.5 fold
[7]; [42]
  CD4+ T cells, mean cell number: 986 ± 113
  CD8+ T cells, mean cell number: 2,757 ± 447
  Monocytes (CD115+ infiltrating into the lung), mean cell number: 33 ± 9
  NK cells, mean cell number: 1,059 ± 130
  Neutrophils, mean cell number: 160 ± 40
  T cells, mean cell number: 2,869 ± 671
[8]
  pEC50: 4.61
[9]
  pEC50: 4.76
[10]
  effect of D489Y mutation on binding affinity to prefusion F: dramatic reduction
[11]
  effect of L141W mutation on binding affinity to prefusion F: dramatic reduction
[12]
  viral titer in BALF and lavaged lung: significant decrease
[13]
  fraction of prefusion F on the surface of the cells after heat shock: concentration-dependent increase
[14]
  concentration required for inhibition of the infection rate, L141W mutant RSV: 100 nM
[15]
  binding to post-fusion RSV F: did not bind
[16]
  pEC50: 4.87
[17]
  concentration required for inhibition of the infection rate, D489Y mutant RSV: 10 µM
[18]; rgRSV224 carrying a D489Y resistance mutation in F, read-out: EC50 (mutant RSV)
  pEC50: 5.39
[19]
  CC50 at 4 days: > 100 µM
[20]
  melting temperature (Tm) of soluble prefusion F ectodomain: concentration-dependent increase
[21]
  pEC50: 4.14
[22]
  Cmax: 254 ng/mL
  Tmax: 1 h
[22]; AUC0-7 lung
  AUC(0-t): 2020 ng·h/mL
[22]; AUC0-7 plasma
  AUC(0-t): 680 ng·h/mL
[23]; PO 5 mg kg−1 vs IV 1 mg kg−1
  F: 89%
[23]; male, Beagle, in vivo, iv, 1 mg/kg
  CLp as fraction of LBF: ~ 27 % LBF
[24]; in vivo, iv, 1 mg/kg
  Vd: 2.8 L/kg
[24]; in vivo, po, 5 mg/kg
  AUC(0-inf): 9690 ng·h/mL
  Cmax: 1120 ng/mL
  Tmax: 1.7 h
[24]; plasma
  half-life: 4.1 h
[24]; plasma, iv, 1 mg/kg
  clearance: 9 mL/min/kg
[25]
  pEC50: < 4.00
[26]
  pEC50: < 4.00
[27]; 40 mg kg−1 once daily from 24 h until Day 3 post-inoculation
  decrease of the RSV titer in both BALF and lavaged-lung tissue: 1.5 log10
[27]; single oral prophylactic dose 100 mg kg−1, 1 h before infection, on average
  decrease of RSV titer in lungs vs vehicle group: 100 fold
[27]; single-dose therapeutic treatment 40 mg kg−1, 24 h after infection
  reduction of the viral titer: moderate reduction
[28]
  pEC50: < 4.00
[29]
  CC50: > 100 µM
  CC50 at 2 days: > 100 µM
[30]
  binding stoichiometry: one inhibitor per trimer
[30]; read-out: equilibrium dissociation constant (KD)
  pKd: 8.13
[31]; [43]
  reduction of viral replication vs non-treated cells: ~ 1.3 log10
  reduction of viral titer vs non-treated cells: ~ 1.3 log10
[31]; human respiratory syncytial virus, read-out: calculated EC50
  pEC50: 8.92
[32]
  pEC50: 5.43
[33]
  pEC50: 4.58
[34]
  CC50 at 2 days: 21.6 µM
[35]
  CC50 at 3 days: > 25 µM
[36]
  CCL2 mean concentration in BALF: 118 ± 17 pg/mL
  CCL3 mean concentration in BALF: 77 ± 11 pg/mL
  CCL5 mean concentration in BALF: 111 ± 13 pg/mL
  CXCL1 mean concentration in BALF: 145 ± 23 pg/mL
  CXCL9 mean concentration in BALF: 1,878 ± 135 pg/mL
  CXCL10 mean concentration in BALF: 2,265 ± 332 pg/mL
  IFN mean concentration in BALF: 465 ± 109 pg/mL
  IL-1 mean concentration in BALF: 171 ± 8 pg/mL
  IL-6 mean concentration in BALF: 29 ± 5 pg/mL
  IL-12p40 mean concentration in BALF: 0.7 ± 0.4 pg/mL
  IL-17 mean concentration in BALF: 3.2 ± 0.3 pg/mL
[37]
  CC50: > 100 µM

## Cc1cn2nc([C@@H]3CCCCN3C(=O)c3cc(Cl)ccc3NS(C)(=O)=O)cc2nc1N1CC[C@H](N)C1 [GS-5806, reference compound]
[1]; [40]
  pEC50: 10.00
[1]; human respiratory syncytial virus, HeLa, read-out: EC50 parent strain (rgRSV224)
  pEC50: 10.00
[18]; mutant selected with JNJ-53718678
  FC (fold change over wild-type strain) mutant strain D489Y: > 50,000
[38]
  FC (fold change over wild-type strain) mutant strain L141W: 379

## prefusion-stabilized RSV F protein (DS-Cav1) (domain or fragment)
[39]
  stoichiometry N: 3
